From patent US10239887B2, “Positive allosteric modulators of the muscarinic acetylcholine receptor M4” (Vanderbilt University, priority 2016, dated 2019)
In brackets after ≈: the same amount, converted by molar mass.

Assays:
cynomolgus monkey M4 = cynomolgus monkey M4 (Macaca fascicularis, UniProt G7PQB4); test: mAChR M4 cell-based functional assay (calcium flux), cyno M4; details: CHO-K1 cells
bacterial = bacterial cytotoxicity assay; format: cell-based; details: 0.6-100 μM
[1] = solubility (aqueous, faSSIF, SGF); format: physicochemical
[2] = MDCK-MDR1 permeability and efflux; format: in vitro ADME; details: dog, MDCK-MDR1
Procedure: (§1) Compound 76 was in several in vitro assays to investigate both metabolism and pharmacokinetics. These assays were performed according to known methods as generally described in the following references: Conde-Ceide et al. ACS Med. Chem. Lett. 2015, 6, 716-720; Morris et al. J. Med. Chem. 2014, 57, 10192-10197; and Bubser et al. ACS Chem. Neurosci. 2014, 5, 920-942.

MDCK-MDR1 = MDCK-MDR1 permeability and efflux; format: in vitro ADME; details: efflux ratio
Procedure: as §1

[3] = fraction unbound in plasma, dog; format: in vitro ADME; details: read-out: Dog Fu (plasma)
Procedure: as §1

[4] = fraction unbound in plasma, cyno; format: in vitro ADME; details: cynomolgus monkey, read-out: Cyno Fu (plasma)
Procedure: as §1

intrinsic clearance, rat = format: in vitro ADME
Procedure: as §1

[5] = intrinsic clearance, cyno; format: in vitro ADME; details: cynomolgus monkey
Procedure: as §1

P450 2D6 = P450 2D6 (Homo sapiens, UniProt P10635); test: P450 2D6 inhibition; format: in vitro ADME
P450 2D6, sequence (P10635 whole entry): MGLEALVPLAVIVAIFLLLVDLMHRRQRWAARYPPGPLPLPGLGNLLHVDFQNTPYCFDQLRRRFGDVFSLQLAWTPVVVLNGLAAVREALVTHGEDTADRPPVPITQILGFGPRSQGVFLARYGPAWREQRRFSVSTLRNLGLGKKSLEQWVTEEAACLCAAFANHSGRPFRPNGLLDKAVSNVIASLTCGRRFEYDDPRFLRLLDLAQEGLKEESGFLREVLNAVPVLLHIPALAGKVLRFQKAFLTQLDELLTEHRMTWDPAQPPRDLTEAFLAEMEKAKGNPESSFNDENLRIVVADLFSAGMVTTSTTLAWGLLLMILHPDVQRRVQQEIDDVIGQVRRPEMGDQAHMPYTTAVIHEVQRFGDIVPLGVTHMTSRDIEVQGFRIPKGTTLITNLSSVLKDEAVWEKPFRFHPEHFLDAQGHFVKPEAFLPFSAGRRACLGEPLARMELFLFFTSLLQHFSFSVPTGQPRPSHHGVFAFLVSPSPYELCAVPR
Procedure: as §1

P450 2C9 = P450 2C9 (Homo sapiens, UniProt P11712); test: P450 2C9 inhibition; format: in vitro ADME
P450 2C9, sequence (P11712 whole entry): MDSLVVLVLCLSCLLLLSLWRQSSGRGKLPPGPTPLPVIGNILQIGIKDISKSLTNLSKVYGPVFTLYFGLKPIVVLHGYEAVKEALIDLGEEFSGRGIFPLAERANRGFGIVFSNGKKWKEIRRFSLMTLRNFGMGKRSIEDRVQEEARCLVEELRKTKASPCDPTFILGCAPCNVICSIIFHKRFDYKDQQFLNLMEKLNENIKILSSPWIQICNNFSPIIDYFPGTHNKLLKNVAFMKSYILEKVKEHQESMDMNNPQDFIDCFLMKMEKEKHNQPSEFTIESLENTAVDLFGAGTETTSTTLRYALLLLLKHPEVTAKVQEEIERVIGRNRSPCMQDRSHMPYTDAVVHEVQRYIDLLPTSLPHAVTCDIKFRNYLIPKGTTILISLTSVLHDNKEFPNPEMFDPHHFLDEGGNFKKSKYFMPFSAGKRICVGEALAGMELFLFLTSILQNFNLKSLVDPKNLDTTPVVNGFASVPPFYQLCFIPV
Procedure: as §1

P450 1A2 = target: T1, P450 1A2 (Homo sapiens, UniProt P05177); test: P450 1A2 inhibition; format: in vitro ADME
T1 sequence (P05177 1-516): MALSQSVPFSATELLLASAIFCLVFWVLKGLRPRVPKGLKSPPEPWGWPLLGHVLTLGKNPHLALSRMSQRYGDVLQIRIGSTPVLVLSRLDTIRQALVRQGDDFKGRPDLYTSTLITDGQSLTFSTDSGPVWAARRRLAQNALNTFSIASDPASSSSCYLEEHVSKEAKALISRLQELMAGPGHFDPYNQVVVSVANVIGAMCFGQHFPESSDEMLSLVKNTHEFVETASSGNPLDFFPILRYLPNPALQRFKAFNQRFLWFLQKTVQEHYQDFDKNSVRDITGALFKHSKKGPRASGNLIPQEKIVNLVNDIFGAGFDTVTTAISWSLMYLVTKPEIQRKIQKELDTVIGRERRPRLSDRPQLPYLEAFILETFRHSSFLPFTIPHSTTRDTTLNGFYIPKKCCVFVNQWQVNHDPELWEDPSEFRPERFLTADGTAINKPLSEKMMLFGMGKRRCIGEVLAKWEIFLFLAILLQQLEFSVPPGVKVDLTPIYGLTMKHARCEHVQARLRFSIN
Procedure: as §1

in vivo [6] = details: rat
in vivo [7] = details: dog, plasma
in vivo DMPK, dog = details: 3 mg/kg
rat mAChR M4 = target: T2, rat mAChR M4 (Rattus norvegicus, UniProt P08485); test: mAChR M4 cell-based functional assay (calcium flux), rat M4; set-up: Emax: dose or concentration left out as unconfirmed
T2 sequence (P08485 1-478): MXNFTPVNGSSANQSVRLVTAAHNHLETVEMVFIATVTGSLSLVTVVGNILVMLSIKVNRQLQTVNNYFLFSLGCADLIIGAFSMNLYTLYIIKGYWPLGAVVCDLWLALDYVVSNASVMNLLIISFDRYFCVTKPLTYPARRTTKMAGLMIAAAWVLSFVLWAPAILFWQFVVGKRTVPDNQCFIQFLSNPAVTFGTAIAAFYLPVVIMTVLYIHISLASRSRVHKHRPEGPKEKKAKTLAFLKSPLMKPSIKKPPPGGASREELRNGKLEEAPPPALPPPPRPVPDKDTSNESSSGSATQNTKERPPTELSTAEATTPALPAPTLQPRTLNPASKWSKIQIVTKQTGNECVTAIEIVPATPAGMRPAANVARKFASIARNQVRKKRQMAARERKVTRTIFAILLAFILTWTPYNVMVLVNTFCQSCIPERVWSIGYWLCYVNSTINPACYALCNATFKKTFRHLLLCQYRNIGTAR

human mAChR M4 = target: T3, human mAChR M4 (Homo sapiens, UniProt P08173); test: mAChR M4 cell-based functional assay (calcium flux), human M4; details: Human M4; % ACh maximum at 30 μM
T3 sequence (P08173 1-479): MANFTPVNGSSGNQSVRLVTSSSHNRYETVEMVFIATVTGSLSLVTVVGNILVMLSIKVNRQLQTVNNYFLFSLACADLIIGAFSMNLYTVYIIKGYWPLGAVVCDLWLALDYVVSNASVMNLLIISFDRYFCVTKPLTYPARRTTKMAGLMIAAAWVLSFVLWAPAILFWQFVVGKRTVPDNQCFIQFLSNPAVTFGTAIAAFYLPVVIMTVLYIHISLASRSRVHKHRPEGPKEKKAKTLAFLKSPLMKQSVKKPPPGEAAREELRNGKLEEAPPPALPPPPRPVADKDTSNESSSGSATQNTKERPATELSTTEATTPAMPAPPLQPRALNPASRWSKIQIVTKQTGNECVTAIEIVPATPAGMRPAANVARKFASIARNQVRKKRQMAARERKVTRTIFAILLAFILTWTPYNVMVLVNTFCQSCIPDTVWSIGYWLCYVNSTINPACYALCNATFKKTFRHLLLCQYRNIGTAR

cynomolgus monkey M4, sequence (G7PQB4 1-479): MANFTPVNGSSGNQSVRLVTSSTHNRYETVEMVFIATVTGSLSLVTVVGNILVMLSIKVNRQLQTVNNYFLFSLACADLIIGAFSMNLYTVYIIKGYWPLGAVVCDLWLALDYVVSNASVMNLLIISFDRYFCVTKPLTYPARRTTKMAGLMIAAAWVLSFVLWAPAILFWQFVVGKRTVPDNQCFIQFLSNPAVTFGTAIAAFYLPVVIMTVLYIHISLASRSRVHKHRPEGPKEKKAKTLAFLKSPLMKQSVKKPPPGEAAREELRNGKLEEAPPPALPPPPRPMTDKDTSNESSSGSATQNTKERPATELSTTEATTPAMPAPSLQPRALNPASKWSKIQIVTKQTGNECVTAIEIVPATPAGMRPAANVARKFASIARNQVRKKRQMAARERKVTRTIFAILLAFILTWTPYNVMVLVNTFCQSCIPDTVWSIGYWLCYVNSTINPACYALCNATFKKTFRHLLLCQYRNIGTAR

SMILES: Cc1nnc2sc3c(NCc4ccc(C(C)(C)O)cc4)ncnc3c2c1C [Compound 76, 2-[4-[[(3,4-Dimethylpyrimido[4′,5′:4,5]thieno[2,3-c]pyridazin-8-yl)amino]methyl]phenyl]propan-2-ol]
- EC50 (cynomolgus monkey M4): 0.12 µM
- bacterial cytotoxicity result (bacterial): clean
- solubility ([1]; aqueous medium (pH 7.4), pH 7.4, aqueous buffer): 166 µM (≈ 63 µg/mL)
- SGF ([1]; solubility in SGF): 180 µM
- faSSIF ([1]; solubility in faSSIF): 24 µM
- Papp A→B [2]: 20 ×10⁻⁶ cm/s
- MDCK-MDR1 ER (MDCK-MDR1): 3.1 (Papp A→B:
- fraction unbound [3]: 0.057
- fraction unbound [4]: 0.009
- CLint scaled (intrinsic clearance, rat): 87 mL/min/kg
- CLint scaled [5]: 102 mL/min/kg
- IC50 (P450 2D6): > 30 µM
- IC50 (P450 2C9): 16 µM
- IC50 (P450 1A2): > 30 µM
- Kp (in vivo [6]; brain): 0.31
- Vd (in vivo [6]; plasma): 1 L/kg
- clearance (in vivo [6]; plasma): 4.4 mL/min/kg
- half-life (in vivo [6]; plasma): 3 h
- Vd (in vivo [7]): 1.4 L/kg
- clearance (in vivo [7]): 4.7 mL/min/kg
- half-life (in vivo [7]): 4.2 h
- Dog oral F (in vivo DMPK, dog): 54%
- Cyno oral F (in vivo DMPK, cyno; 3 mg/kg): 44%
- Cyno CSF: plasma Kp (in vivo DMPK, cyno; cynomolgus monkey, in vivo): 0.01
- Cyno CSF: plasma Kp, u (in vivo DMPK, cyno; cynomolgus monkey, in vivo): 1.1
- Emax (rat mAChR M4): 77%
- Emax (human mAChR M4): 86%
